Where “and” joins values, the source holds several entries; their conditions need not be identical. Identical values can stand only once. Toxic doses and inconclusive results are not listed. Cut-off read from the data, not from the text of the source: active = T/C of 150% or more; inactive = T/C below 125%.
Test system: L1210 leukemia ip in BDF1 mice, survival T/C
Test: NCI In Vivo Anticancer Drug Screen. Data for tumor model L1210 Leukemia (intraperitoneal) in B6D2F1 (BDF1) mice
Conditions: endpoint: mean survival time, higher = longer survival
In short: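 In this screen, tumor-bearing mice given compound are compared to those given vehicle, and their survival values are reported as a treated-to-control quotient.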

Measured: T/C

Nc1ccc(OC(=O)Oc2ccc(N)cc2)cc1
inactive: dose: 5.0 mg/kg/injection, schedule: Q01DX Z (iv), vehicle: saline 101 % of control | dose: 6.25 mg/kg/injection, schedule: Q#A X Z (oral), vehicle: saline 106 % of control | dose: 10.0 mg/kg/injection, schedule: Q01DX Z (iv), vehicle: saline 101 % of control | dose: 12.5 mg/kg/injection, schedule: Q01DX Z (oral), vehicle: saline 104 % of control | dose: 12.5 mg/kg/injection, schedule: Q#A X Z (oral), vehicle: saline 108 % of control | dose: 16.0 mg/kg/injection, schedule: Q07DX003 (oral), vehicle: saline 103 % of control | dose: 20.0 mg/kg/injection, schedule: Q01DX Z (iv), vehicle: saline 100 % of control | dose: 25.0 mg/kg/injection, schedule: Q01DX Z (oral), vehicle: saline 104 % of control | dose: 25.0 mg/kg/injection, schedule: Q#A X Z (oral), vehicle: saline 112 % of control | dose: 31.0 mg/kg/injection, schedule: Q07DX003 (oral), vehicle: saline 98 % of control | dose: 37.0 mg/kg/injection, schedule: Q01DX Z (ip), vehicle: carboxymethylcellulose (CMC) 100 % of control | dose: 37.5 mg/kg/injection, schedule: Q01DX009 (ip), vehicle: other 101 % of control | dose: 37.5 mg/kg/injection, schedule: Q01DX017 (ip), vehicle: other 101 % of control | dose: 37.5 mg/kg/injection, schedule: Q#A X018 (ip), vehicle: other 97 % of control | dose: 38.0 mg/kg/injection, schedule: Q01DX Z (ip), vehicle: carboxymethylcellulose (CMC) 98 % of control | dose: 40.0 mg/kg/injection, schedule: Q01DX Z (iv), vehicle: saline 100 % of control | dose: 40.0 mg/kg/injection, schedule: Q#A X Z (ip), vehicle: saline 111 % of control | dose: 50.0 mg/kg/injection, schedule: Q01DX005 (ip), vehicle: saline 101 % of control | dose: 50.0 mg/kg/injection, schedule: Q01DX006 (iv), vehicle: saline 110 % of control | dose: 50.0 mg/kg/injection, schedule: Q01DX009 (ip), vehicle: saline 104 % of control | dose: 50.0 mg/kg/injection, schedule: Q01DX015 (ip), vehicle: other 115 % of control | dose: 50.0 mg/kg/injection, schedule: Q01DX Z (im), vehicle: saline 104 % of control | dose: 50.0 mg/kg/injection, schedule: Q01DX Z (oral), vehicle: saline 112 % of control | dose: 50.0 mg/kg/injection, schedule: Q01DX Z (sc), vehicle: saline 112 % of control | dose: 50.0 mg/kg/injection, schedule: Q## X003 (ip), vehicle: saline 102 % of control | dose: 50.0 mg/kg/injection, schedule: Q## X024 (ip), vehicle: saline 101 % of control | dose: 53.0 mg/kg/injection, schedule: Q01DX Z (ip), vehicle: carboxymethylcellulose (CMC) 89 % of control and 113 % of control | dose: 53.0 mg/kg/injection, schedule: Q01DX Z (ip), vehicle: saline 102 % of control | dose: 63.0 mg/kg/injection, schedule: Q07DX003 (oral), vehicle: saline 106 % of control | dose: 74.0 mg/kg/injection, schedule: Q01DX Z (ip), vehicle: carboxymethylcellulose (CMC) 113 % of control | dose: 75.0 mg/kg/injection, schedule: Q01DX009 (ip), vehicle: other 104 % of control | dose: 75.0 mg/kg/injection, schedule: Q01DX017 (ip), vehicle: other 104 % of control | dose: 75.0 mg/kg/injection, schedule: Q01DX Z (ip), vehicle: carboxymethylcellulose (CMC) 102 % of control | dose: 75.0 mg/kg/injection, schedule: Q#A X018 (ip), vehicle: other 118 % of control | dose: 80.0 mg/kg/injection, schedule: Q01DX012 (oral), vehicle: saline 94 % of control | dose: 80.0 mg/kg/injection, schedule: Q01DX Z (ip), vehicle: carboxymethylcellulose (CMC) 93 % of control | dose: 80.0 mg/kg/injection, schedule: Q01DX Z (ip), vehicle: saline 113 % of control | dose: 100.0 mg/kg/injection, schedule: Q01DX001 (ip), vehicle: saline 98 % of control | dose: 100.0 mg/kg/injection, schedule: Q01DX005 (ip), vehicle: saline 92 % of control | dose: 100.0 mg/kg/injection, schedule: Q01DX005 (oral), vehicle: saline 116 % of control | dose: 100.0 mg/kg/injection, schedule: Q01DX006 (iv), vehicle: saline 114 % of control | dose: 100.0 mg/kg/injection, schedule: Q01DX009 (oral), vehicle: saline 116 % of control | dose: 100.0 mg/kg/injection, schedule: Q01DX015 (ip), vehicle: clinical formulation 118 % of control | dose: 100.0 mg/kg/injection, schedule: Q## X003 (ip), vehicle: saline 106 % of control | dose: 100.0 mg/kg/injection, schedule: Q## X003 (oral), vehicle: saline 101 % of control | dose: 100.0 mg/kg/injection, schedule: Q## X008 (ip), vehicle: saline 101 % of control | dose: 120.0 mg/kg/injection, schedule: Q01DX012 (oral), vehicle: saline 105 % of control | dose: 120.0 mg/kg/injection, schedule: Q01DX Z (ip), vehicle: carboxymethylcellulose (CMC) 97 % of control | dose: 120.0 mg/kg/injection, schedule: Q01DX Z (ip), vehicle: saline 108 % of control and 117 % of control | dose: 125.0 mg/kg/injection, schedule: Q07DX003 (oral), vehicle: saline 106 % of control | dose: 135.0 mg/kg/injection, schedule: Q#A X Z (ip), vehicle: saline 102 % of control | dose: 149.0 mg/kg/injection, schedule: Q01DX Z (ip), vehicle: carboxymethylcellulose (CMC) 105 % of control | dose: 150.0 mg/kg/injection, schedule: Q01DX001 (ip), vehicle: other 109 % of control | dose: 150.0 mg/kg/injection, schedule: Q01DX Z (ip), vehicle: carboxymethylcellulose (CMC) 113 % of control | dose: 180.0 mg/kg/injection, schedule: Q01DX Z (ip), vehicle: carboxymethylcellulose (CMC) 98 % of control | dose: 180.0 mg/kg/injection, schedule: Q01DX Z (ip), vehicle: saline 105 % of control | dose: 180.0 mg/kg/injection, schedule: Q01DX Z (oral), vehicle: saline 110 % of control | dose: 200.0 mg/kg/injection, schedule: Q01DX001 (ip), vehicle: saline 110 % of control | dose: 200.0 mg/kg/injection, schedule: Q01DX005 (oral), vehicle: saline 110 % of control | dose: 200.0 mg/kg/injection, schedule: Q01DX008 (oral), vehicle: saline 93 % of control | dose: 200.0 mg/kg/injection, schedule: Q01DX015 (ip), vehicle: clinical formulation 108 % of control | dose: 200.0 mg/kg/injection, schedule: Q01DX015 (ip), vehicle: other 100 % of control | dose: 200.0 mg/kg/injection, schedule: Q## X003 (ip), vehicle: saline 98 % of control | dose: 200.0 mg/kg/injection, schedule: Q## X003 (oral), vehicle: saline 106 % of control | dose: 200.0 mg/kg/injection, schedule: Q## X008 (ip), vehicle: saline 104 % of control | dose: 200.0 mg/kg/injection, schedule: Q## X024 (ip), vehicle: saline 97 % of control | dose: 240.0 mg/kg/injection, schedule: Q03DX Z (ip), vehicle: saline 110 % of control | dose: 250.0 mg/kg/injection, schedule: Q01DX001 (oral), vehicle: saline 115 % of control | dose: 250.0 mg/kg/injection, schedule: Q03DX006 (oral), vehicle: saline 108 % of control | dose: 250.0 mg/kg/injection, schedule: Q07DX003 (oral), vehicle: saline 113 % of control | dose: 267.0 mg/kg/injection, schedule: Q## X024 (ip), vehicle: saline 106 % of control | dose: 267.0 mg/kg/injection, schedule: Q## X024 (oral), vehicle: saline 110 % of control | dose: 270.0 mg/kg/injection, schedule: Q01DX Z (ip), vehicle: carboxymethylcellulose (CMC) 101 % of control | dose: 270.0 mg/kg/injection, schedule: Q01DX Z (ip), vehicle: other 113 % of control | dose: 270.0 mg/kg/injection, schedule: Q01DX Z (ip), vehicle: saline 91 % of control | dose: 300.0 mg/kg/injection, schedule: Q01DX001 (ip), vehicle: other 103 % of control | dose: 360.0 mg/kg/injection, schedule: Q03DX Z (ip), vehicle: saline 110 % of control | dose: 400.0 mg/kg/injection, schedule: Q01DX001 (ip), vehicle: saline 97 % of control | dose: 400.0 mg/kg/injection, schedule: Q01DX006 (iv), vehicle: saline 118 % of control | dose: 400.0 mg/kg/injection, schedule: Q01DX008 (oral), vehicle: saline 92 % of control | dose: 400.0 mg/kg/injection, schedule: Q## X003 (ip), vehicle: saline 111 % of control | dose: 400.0 mg/kg/injection, schedule: Q## X003 (oral), vehicle: saline 105 % of control | dose: 400.0 mg/kg/injection, schedule: Q## X008 (ip), vehicle: saline 101 % of control | dose: 400.0 mg/kg/injection, schedule: Q## X024 (oral), vehicle: saline 102 % of control and 105 % of control | dose: 405.0 mg/kg/injection, schedule: Q01DX Z (ip), vehicle: other 116 % of control | dose: 500.0 mg/kg/injection, schedule: Q01DX001 (oral), vehicle: saline 110 % of control | dose: 500.0 mg/kg/injection, schedule: Q03DX006 (oral), vehicle: saline 115 % of control | dose: 500.0 mg/kg/injection, schedule: Q07DX003 (oral), vehicle: saline 111 % of control | dose: 540.0 mg/kg/injection, schedule: Q03DX Z (ip), vehicle: saline 115 % of control | dose: 560.0 mg/kg/injection, schedule: Q07DX Z (ip), vehicle: saline 110 % of control | dose: 600.0 mg/kg/injection, schedule: Q## X024 (oral), vehicle: saline 115 % of control | dose: 720.0 mg/kg/injection, schedule: Q01DX Z (oral), vehicle: saline 106 % of control | dose: 800.0 mg/kg/injection, schedule: Q01DX008 (oral), vehicle: saline 116 % of control | dose: 800.0 mg/kg/injection, schedule: Q## X003 (oral), vehicle: saline 102 % of control | dose: 1000.0 mg/kg/injection, schedule: Q01DX001 (oral), vehicle: saline 110 % of control | dose: 1000.0 mg/kg/injection, schedule: Q03DX006 (oral), vehicle: saline 114 % of control | dose: 2000.0 mg/kg/injection, schedule: Q01DX001 (oral), vehicle: saline 92 % of control
